From patent publication US12559506B2, “Indazole based compounds and associated methods of use” (Arvinas Operations, Inc., priority 2021, dated 2026)
Read-outs that look alike come from different tables or passages of the source.

How the values were obtained:
wildtype LRRK2 = molecular target: T1, wildtype LRRK2 (Homo sapiens, UniProt Q5S007); experiment: LRRK2 degradation assay, HiBit-tagged wildtype LRRK2 expressed from plasmid in HEK293 cells (Nano-Glo Dual-Luciferase); format: cell-based; conditions: 24 hours; for Dmax: read-out: **WT Dmax (%); for DC50: read-out: *WT DC50
T1 construct: expressed in transfected cells; host or cells: HEK293 (ATCC CRL-1573), transient transfection, mammalian expression vector with ubiquitin promoter
T1 sequence (Q5S007 whole entry): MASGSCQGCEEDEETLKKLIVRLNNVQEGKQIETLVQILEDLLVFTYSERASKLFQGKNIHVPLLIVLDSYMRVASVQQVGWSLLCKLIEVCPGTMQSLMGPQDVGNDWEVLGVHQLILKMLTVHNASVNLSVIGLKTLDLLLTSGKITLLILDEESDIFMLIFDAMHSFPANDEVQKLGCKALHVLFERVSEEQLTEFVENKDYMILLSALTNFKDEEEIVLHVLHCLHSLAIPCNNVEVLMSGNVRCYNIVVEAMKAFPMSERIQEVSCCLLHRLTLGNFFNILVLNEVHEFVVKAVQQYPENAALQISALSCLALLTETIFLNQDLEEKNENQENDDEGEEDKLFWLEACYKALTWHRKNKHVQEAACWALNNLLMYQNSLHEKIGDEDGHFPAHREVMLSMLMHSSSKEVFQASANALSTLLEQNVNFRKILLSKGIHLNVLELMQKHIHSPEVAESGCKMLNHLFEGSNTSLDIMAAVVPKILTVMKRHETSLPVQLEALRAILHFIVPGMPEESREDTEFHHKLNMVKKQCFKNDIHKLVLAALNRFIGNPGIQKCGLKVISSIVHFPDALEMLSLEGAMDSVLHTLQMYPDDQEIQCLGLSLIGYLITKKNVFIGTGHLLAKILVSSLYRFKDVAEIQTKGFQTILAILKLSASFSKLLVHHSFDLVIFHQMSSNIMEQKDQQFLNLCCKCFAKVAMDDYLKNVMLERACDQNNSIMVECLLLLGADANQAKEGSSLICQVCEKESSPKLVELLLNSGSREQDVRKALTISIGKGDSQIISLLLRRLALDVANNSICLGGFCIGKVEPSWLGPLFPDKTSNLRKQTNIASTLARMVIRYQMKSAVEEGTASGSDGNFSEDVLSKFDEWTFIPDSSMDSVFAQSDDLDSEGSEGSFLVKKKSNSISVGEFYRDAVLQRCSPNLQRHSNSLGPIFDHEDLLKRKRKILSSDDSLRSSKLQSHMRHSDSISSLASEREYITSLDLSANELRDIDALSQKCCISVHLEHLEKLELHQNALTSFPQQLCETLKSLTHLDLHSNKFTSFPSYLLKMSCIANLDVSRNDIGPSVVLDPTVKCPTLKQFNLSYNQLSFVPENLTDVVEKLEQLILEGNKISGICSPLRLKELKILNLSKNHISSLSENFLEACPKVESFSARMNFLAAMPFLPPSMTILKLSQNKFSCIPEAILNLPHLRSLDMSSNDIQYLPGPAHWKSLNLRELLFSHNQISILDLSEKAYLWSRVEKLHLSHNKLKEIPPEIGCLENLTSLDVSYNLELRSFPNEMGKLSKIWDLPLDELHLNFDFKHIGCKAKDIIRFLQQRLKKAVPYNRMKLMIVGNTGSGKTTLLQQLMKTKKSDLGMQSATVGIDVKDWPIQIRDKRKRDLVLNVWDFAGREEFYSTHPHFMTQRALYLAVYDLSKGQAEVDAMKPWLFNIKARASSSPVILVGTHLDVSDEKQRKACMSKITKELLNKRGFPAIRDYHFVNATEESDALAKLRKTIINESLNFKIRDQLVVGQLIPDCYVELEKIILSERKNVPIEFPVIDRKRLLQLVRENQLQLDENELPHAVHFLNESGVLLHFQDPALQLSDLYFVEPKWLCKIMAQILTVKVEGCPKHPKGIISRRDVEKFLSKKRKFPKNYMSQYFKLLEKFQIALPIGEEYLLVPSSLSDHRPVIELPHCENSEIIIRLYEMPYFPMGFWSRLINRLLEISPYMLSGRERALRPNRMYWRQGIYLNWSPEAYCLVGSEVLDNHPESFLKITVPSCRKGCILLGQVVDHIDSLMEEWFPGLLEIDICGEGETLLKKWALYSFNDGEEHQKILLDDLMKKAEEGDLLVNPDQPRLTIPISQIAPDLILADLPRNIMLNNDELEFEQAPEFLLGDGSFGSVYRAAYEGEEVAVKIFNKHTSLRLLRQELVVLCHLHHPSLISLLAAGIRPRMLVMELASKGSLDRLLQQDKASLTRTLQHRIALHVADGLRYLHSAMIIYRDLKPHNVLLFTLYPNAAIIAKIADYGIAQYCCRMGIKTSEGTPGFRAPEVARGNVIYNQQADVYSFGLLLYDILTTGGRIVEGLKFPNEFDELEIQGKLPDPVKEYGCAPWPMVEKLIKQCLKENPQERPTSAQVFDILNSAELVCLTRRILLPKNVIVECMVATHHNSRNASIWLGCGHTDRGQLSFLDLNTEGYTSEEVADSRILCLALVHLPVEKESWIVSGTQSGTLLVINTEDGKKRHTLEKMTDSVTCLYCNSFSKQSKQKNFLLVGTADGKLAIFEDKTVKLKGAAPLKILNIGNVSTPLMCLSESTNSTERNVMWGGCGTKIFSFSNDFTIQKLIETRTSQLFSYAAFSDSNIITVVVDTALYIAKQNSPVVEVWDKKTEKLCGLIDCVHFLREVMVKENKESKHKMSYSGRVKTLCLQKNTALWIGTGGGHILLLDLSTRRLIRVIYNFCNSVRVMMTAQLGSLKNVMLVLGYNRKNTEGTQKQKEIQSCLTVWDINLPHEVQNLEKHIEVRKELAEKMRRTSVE
Summary of the method: (§1)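 HEK293 cells co-transfected with C-terminal HiBiT-tagged LRRK2 (WT or G2019S, ubiquitin promoter) and firefly luciferase, then dosed 24 h at 37 °C. HiBiT/firefly ratio normalized to DMSO median; DC50 and Dmax from per-plate curve fits, six replicates over two days.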

G2019S LRRK2 = molecular target: T2, G2019S LRRK2 (Homo sapiens, UniProt Q5S007, G2019S); experiment: LRRK2 degradation assay, HiBit-tagged G2019S LRRK2 expressed from plasmid in HEK293 cells (Nano-Glo Dual-Luciferase); format: cell-based; conditions: 24 hours
T2 construct: expressed in transfected cells; host or cells: HEK293 (ATCC CRL-1573), transient transfection, mammalian expression vector with ubiquitin promoter
T2 sequence (Q5S007 whole entry G2019S): as the sequence (Q5S007 whole entry) above, with G2019S counted along it
Summary of the method: as §1

[1] = HiBit-tagged wildtype LRRK2, HEK293 cells
[2] = HiBit-tagged G2019S LRRK2, HEK293 cells
[3] = HiBit-tagged wildtype LRRK2 in HEK293 cells
[4] = HiBit-tagged G2019S LRRK2 in HEK293 cells

Dmax (wildtype LRRK2; [1]) | DC50 (wildtype LRRK2; [1]) | DC50 (G2019S LRRK2; [2]) | Dmax (G2019S LRRK2; [2]) | Dmax (wildtype LRRK2; [3]) | DC50 (wildtype LRRK2; [3]) | DC50 (G2019S LRRK2; [4]) | Dmax (G2019S LRRK2; [4]) | SMILES
< 50% | < 10 nM | < 10 nM | 50 to 70% |  |  |  |  | CC1(Oc2ccc3[nH]nc(-c4ccnc(N5CC(CCC6CCN(CC7CCN(c8ccc9c(c8)C(=O)N(C8CCC(=O)NC8=O)C9=O)CC7)CC6)C5)c4)c3c2)CC1 (centres unmarked) [Compound 165, 2-(2,6-dioxo-3-piperidyl)-5-[4-[[4-[2-[1-[4-[5-(1-methylcyclopropoxy)-1H-indazol-3-yl]-2-pyridyl]azetidin-3-yl]ethyl]-1-piperidyl]methyl]-1-piperidyl]isoindoline-1,3-dione]
 |  |  |  | < 50% | < 10 nM | < 10 nM | < 50% | C[C@H]1CN(c2cc(-c3n[nH]c4ccc(OC5(C)CC5)cc34)ncn2)CCN1CC1CCN(CC2(F)CCN(c3ccc4c(c3)C(=O)N(C3CCC(=O)NC3=O)C4=O)CC2)CC1 (stereo partly drawn) [Compound 70, 2-(2,6-dioxo-3-piperidyl)-5-[4-fluoro-4-[[4-[[(2S)-2-methyl-4-[6-[5-(1-methylcyclopropoxy)-1H-indazol-3-yl]pyrimidin-4-yl]piperazin-1-yl]methyl]-1-piperidyl]methyl]-1-piperidyl]isoindoline-1,3-dione]
 |  |  |  | 50 to 70% | < 10 nM | < 10 nM | 50 to 70% | CC1(Oc2ccc3[nH]nc(-c4cc(N5CCO[C@H](CN6CCC(OC7CCN(c8ccc9c(c8)C(=O)N(C8CCC(=O)NC8=O)C9=O)CC7)CC6)C5)ncn4)c3c2)CC1 (stereo partly drawn) [Compound 150, 2-(2,6-dioxopiperidin-3-yl)-5-{4-[(1-{[(2R)-4-{6-[5-(1-methylcyclopropoxy)-1H-indazol-3-yl]pyrimidin-4-yl}morpholin-2-yl]methyl}piperidin-4-yl)oxy]piperidin-1-yl}-2,3-dihydro-1H-isoindole-1,3-dione]
 |  |  |  | 50 to 70% | < 10 nM | < 10 nM | < 50% | C[C@H]1CN(c2cc(-c3n[nH]c4cc(F)c(OC5(C)CC5)cc34)ncn2)CCN1CC1CCN(CC2CCN(c3ccc4c(c3)C(=O)N(C3CCC(=O)NC3=O)C4=O)CC2)CC1 (stereo partly drawn) [Compound 71, 2-(2,6-dioxopiperidin-3-yl)-5-{4-[(4-{[(2S)-4-{6-[6-fluoro-5-(1-methylcyclopropoxy)-1H-indazol-3-yl]pyrimidin-4-yl}-2-methylpiperazin-1-yl]methyl}piperidin-1-yl)methyl]piperidin-1-yl}-2,3-dihydro-1H-isoindole-1,3-dione]
 |  |  |  | < 50% | 10 to 50 nM | 10 to 50 nM | 50 to 70% | CC1(Oc2ccc3[nH]nc(-c4ccnc(N5CCC(O[C@H]6CC[C@H](OC7CCN(c8ccc9c(c8)C(=O)N(C8CCC(=O)NC8=O)C9=O)CC7)CC6)CC5)c4)c3c2)CC1 (some centres unmarked) [Compound 100, 2-(2,6-dioxopiperidin-3-yl)-5-(4-{[(1r,4r)-4-[(1-{4-[5-(1-methylcyclopropoxy)-1H-indazol-3-yl]pyridin-2-yl}piperidin-4-yl)oxy]cyclohexyl]oxy}piperidin-1-yl)-2,3-dihydro-1H-isoindole-1,3-dione]
 |  |  |  | 50 to 70% | 10 to 50 nM | 10 to 50 nM | < 50% | CC1(Oc2ccc3[nH]nc(-c4cc(N5CCC(CN6CC[C@H](OC7CCN(c8ccc9c(c8)C(=O)N(C8CCC(=O)NC8=O)C9=O)CC7)C6)CC5)ncn4)c3c2)CC1 (stereo partly drawn) [Compound 118, 2-(2,6-dioxo-3-piperidyl)-5-[4-[(3S)-1-[[1-[6-[5-(1-methylcyclopropoxy)-1H-indazol-3-yl]pyrimidin-4-yl]-4-piperidyl]methyl]pyrrolidin-3-yl]oxy-1-piperidyl]isoindoline-1,3-dione]
 | ≥ 100 nM | ≥ 100 nM |  |  |  |  |  | CC1(Oc2ccc3n[nH]c(-c4cc(N5CCC(Cc6cccc(CC7CCN(c8ccc9c(c8)C(=O)N(C8CCC(=O)NC8=O)C9=O)CC7)c6)CC5)ncn4)c3c2)CC1 (centres unmarked) [Compound 174, 2-(2,6-dioxo-3-piperidyl)-5-[4-[[3-[[1-[6-[5-(1-methylcyclopropoxy)-2H-indazol-3-yl]pyrimidin-4-yl]-4-piperidyl]methyl]phenyl]methyl]-1-piperidyl]isoindoline-1,3-dione]
 |  |  |  | < 50% | < 10 nM | < 10 nM | < 50% | CC1(Oc2ccc3n[nH]c(-c4ccnc(N5CCN(C(=O)C6CCN(CC7CCN(c8ccc9c(c8)C(=O)N(C8CCC(=O)NC8=O)C9=O)CC7)CC6)CC5)c4)c3c2)CC1 (centres unmarked) [Compound 85, 2-(2,6-dioxo-3-piperidyl)-5-[4-[[4-[4-[4-[5-(1-methylcyclopropoxy)-2H-indazol-3-yl]-2-pyridyl]piperazine-1-carbonyl]-1-piperidyl]methyl]-1-piperidyl]isoindoline-1,3-dione]
< 50% | < 10 nM | 10 to 50 nM | < 50% |  |  |  |  | C[C@H]1CN(c2cc(-c3[nH]nc4ccc(OC5(C)CC5)cc34)ncn2)CCN1Cc1cn(CC2CCN(c3ccc4c(c3)C(=O)N(C3CCC(=O)NC3=O)C4=O)CC2)nn1 (stereo partly drawn) [Compound 168, 2-(2,6-dioxo-3-piperidyl)-5-[4-[[4-[[(2S)-2-methyl-4-[6-[5-(1-methylcyclopropoxy)-2H-indazol-3-yl]pyrimidin-4-yl]piperazin-1-yl]methyl]triazol-1-yl]methyl]-1-piperidyl]isoindoline-1,3-dione]
 |  |  |  | < 50% | < 10 nM | < 10 nM | 50 to 70% | CC1(Oc2ccc3[nH]nc(-c4cc(N5CCN(CC6CCN(CC7CCN(c8ccc9c(c8)C(=O)N(C8CCC(=O)NC8=O)C9=O)CC7)CC6)CC5)ncn4)c3c2)CC1 (centres unmarked) [Compound 76, 2-(2,6-dioxo-3-piperidyl)-5-[4-[[4-[[4-[6-[5-(1-methylcyclopropoxy)-1H-indazol-3-yl]pyrimidin-4-yl]piperazin-1-yl]methyl]-1-piperidyl]methyl]-1-piperidyl]isoindoline-1,3-dione]
 |  |  |  | < 50% | < 10 nM | < 10 nM | 50 to 70% | CC1(Oc2ccc3[nH]nc(-c4cc(N5CCN(CC6CCN(C(=O)C7CCN(c8ccc9c(c8)C(=O)N(C8CCC(=O)NC8=O)C9=O)CC7)CC6)CC5)ncn4)c3c2)CC1 (centres unmarked) [Compound 90, 2-(2,6-dioxopiperidin-3-yl)-5-(4-{4-[(4-{6-[5-(1-methylcyclopropoxy)-1H-indazol-3-yl]pyrimidin-4-yl}piperazin-1-yl)methyl]piperidine-1-carbonyl}piperidin-1-yl)-2,3-dihydro-1H-isoindole-1,3-dione]
 |  |  |  | 50 to 70% | < 10 nM | < 10 nM | 50 to 70% | CC1(Oc2ccc3[nH]nc(-c4cc(N5CCC(CN6CCN(C(=O)C7CCN(c8ccc9c(c8)C(=O)N(C8CCC(=O)NC8=O)C9=O)CC7)CC6)CC5)ncn4)c3c2)CC1 (centres unmarked) [Compound 94, 2-(2,6-dioxopiperidin-3-yl)-5-(4-{4-[(1-{6-[5-(1-methylcyclopropoxy)-1H-indazol-3-yl]pyrimidin-4-yl}piperidin-4-yl)methyl]piperazine-1-carbonyl}piperidin-1-yl)-2,3-dihydro-1H-isoindole-1,3-dione]
 |  |  |  | < 50% | 10 to 50 nM | 10 to 50 nM | 50 to 70% | CC1(Oc2ccc3[nH]nc(-c4cc(N5CCC(C(=O)N6CCC(CC7CCN(c8ccc9c(c8)C(=O)N(C8CCC(=O)NC8=O)C9=O)CC7)CC6)CC5)ncn4)c3c2)CC1 (centres unmarked) [Compound 88, 2-(2,6-dioxo-3-piperidyl)-5-[4-[[1-[1-[6-[5-(1-methylcyclopropoxy)-1H-indazol-3-yl]pyrimidin-4-yl]piperidine-4-carbonyl]-4-piperidyl]methyl]-1-piperidyl]isoindoline-1,3-dione]
 |  |  |  | < 50% | < 10 nM | < 10 nM | < 50% | C[C@H]1CN(c2cc(-c3n[nH]c4ccc(OC5(C)CC5)cc34)ncn2)CCN1CC1CCN(CCCNc2cccc3c2C(=O)N(C2CCC(=O)NC2=O)C3=O)CC1 (stereo partly drawn) [Compound 140, 2-(2,6-dioxo-3-piperidyl)-4-[3-[4-[[(2S)-2-methyl-4-[6-[5-(1-methylcyclopropoxy)-2H-indazol-3-yl]pyrimidin-4-yl]piperazin-1-yl]methyl]-1-piperidyl]propylamino]isoindoline-1,3-dione]
 |  |  |  | 50 to 70% | < 10 nM | < 10 nM | < 50% | CC1(Oc2ccc3[nH]nc(-c4ccnc(N5CCN(CC6(F)CCN(C(=O)C7CCN(c8ccc9c(c8)C(=O)N(C8CCC(=O)NC8=O)C9=O)CC7)CC6)CC5)c4)c3c2)CC1 (centres unmarked) [Compound 97, 2-(2,6-dioxo-3-piperidyl)-5-[4-[4-fluoro-4-[[4-[4-[5-(1-methylcyclopropoxy)-1H-indazol-3-yl]-2-pyridyl]piperazin-1-yl]methyl]piperidine-1-carbonyl]-1-piperidyl]isoindoline-1,3-dione]
 |  |  |  | < 50% | < 10 nM | 10 to 50 nM | < 50% | CC1(Oc2ccc3[nH]nc(-c4cc(N5CCN(CC67CC(CN8CCN(c9ccc%10c(c9)C(=O)N(C9CCC(=O)NC9=O)C%10=O)CC8)(C6)C7)CC5)ncn4)c3c2)CC1 (centres unmarked) [Compound 124, 2-(2,6-dioxo-3-piperidyl)-5-[4-[[3-[[4-[6-[5-(1-methylcyclopropoxy)-2H-indazol-3-yl]pyrimidin-4-yl]piperazin-1-yl]methyl]-1-bicyclo[1.1.1]pentanyl]methyl]piperazin-1-yl]isoindoline-1,3-dione]
